Experimental data as given in patent US4875922A, “Pyrimidine derivatives” (Imperial Chemical Industries PLC, priority 1986, dated 1989).

Experiments:
[1] = test system: Barley; experiment: Modified Intermediate Retardant Test, barley; format: in vivo, Barley (Atem); settings: 2000 g/ha, overall spray, height to topmost ligule 21 days after treatment
Description: (§1) The general Intermediate Retardant Test described in Example 62 was modified by the addition of Sunflowers (SR) and the variety and growth stages at spray are outlined in Table XIII. Apart from the changes indicated, growing conditions for barley, rice and apples were as in Example 62 and growing conditions for Sunflower were as for apples. Test compounds were applied to barley, rice and apples as whole plant (overall) sprays at a rate of 2000 g/ha. Test compounds were applied to sunflowers separately as a foliar only spray at a rate of 2000 g/ha and as a root drench at a rate of 2000 g/ha.
(§2) Barley and rice were assessed for height to topmost ligule 21 days after treatment; apples were assessed for height to apex at 21 days after treatment; and sunflowers were assessed for height to apex at 14 days after treatment. The results are expressed as percentage reduction in height compared with the formulation blank in Table XIV.

[2] = test system: Apple; experiment: Modified Intermediate Retardant Test, apples; format: in vivo, Apple (Red Delicious); settings: 2000 g/ha, overall spray, height to apex 21 days after treatment
Description: as §1, §2

[3] = test system: Rice; experiment: Modified Intermediate Retardant Test, rice; format: in vivo, Rice (Ishikari); settings: 2000 g/ha, overall spray, height to topmost ligule 21 days after treatment
Description: as §1, §2

[4] = test system: Wheat; experiment: Whole plant screen for plant growth regulator activity, wheat (WW); format: in vivo, Wheat (Timmo); settings: WW, 4000 ppm (4 kg/ha), visual score after 2-6 weeks; for T = Tillering or side shooting: * = decrease in tillering
Outline: (§3)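 Compounds sprayed at 4000 ppm (4 kg/ha in 1000 l/ha) by tracksprayer at a defined leaf stage. Plants then grown in glasshouse at 25° C. day/22° C. night (wheat and barley 16° C. day/13° C. night), 16 hour photoperiod. Morphology visually assessed after 2-6 weeks against formulation blanks.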

[5] = test system: Sunflower; experiment: Modified Intermediate Retardant Test, sunflower; format: in vivo; settings: 2000 g/ha, height to apex 14 days after treatment; for […] IN HEIGHT, SR (Foliar): foliar only spray; for […] IN HEIGHT, SR (Root): root drench
Description: as §1, §2

[6] = test system: Tomato; experiment: Whole plant screen for plant growth regulator activity, tomato (TO); format: in vivo, Tomato (Ailsa Craig); settings: 4000 ppm (4 kg/ha), visual score after 2-6 weeks
Outline: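 Tomato (Ailsa Craig), one plant per 3-inch peat pot, sprayed at 2–2½ leaves with 4000 ppm (4 kg/ha in 1000 l/ha) by track sprayer. Glasshouse 25 °C day/22 °C night, 16 h photoperiod; morphology visually scored after 2–6 weeks against formulation blanks.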

[7] = test system: Barley; experiment: Whole plant screen for plant growth regulator activity, barley (BR); format: in vivo, Barley (Atem); settings: BR, 4000 ppm (4 kg/ha), visual score after 2-6 weeks; for T = Tillering or side shooting: * = decrease in tillering
Outline: as §3

[8] = test system: Pyricularia oryzae; format: in vivo; settings: 100 ppm spray plus root drench (approximately 40 ppm a.i/dry soil), one or two days before inoculation
[9] = test system: Rice; experiment: Intermediate Retardant Test, rice; format: in vivo, Rice (Ishikari); settings: Oryza sativa, 672 h, overall spray, approximately 28 days, Table VI, read-out: Percentage Reduction in Height of Rice (Compared to formulation blank)
Outline: (§4)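 Overall spray at 500 and 2000 ppm (0.5 and 2 kg/ha^-1 at 1000 l/ha^-1); for apples, a 2000 ppm foliar-only spray was also compared with a 2000 ppm root drench. Rice grew in flooded 4" paddy pots, barley and apples in 4" pots. About 28 days after treatment, height (to top-most ligule, or to apex for apples) was recorded as % reduction versus formulation blank.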

[10] = test system: Apple; experiment: Whole plant screen for plant growth regulator activity, apple (AP); format: in vivo, Apple (Red Delicious); settings: 4000 ppm (4 kg/ha), visual score after 2-6 weeks
Outline: as §3

[11] = test system: Phytophthora infestans; format: in vivo; settings: 100 ppm spray plus root drench (approximately 40 ppm a.i/dry soil), one or two days before inoculation
[12] = test system: Erysiphe graminis; experiment: Foliar fungal disease control, Erysiphe graminis (barley); format: in vivo; settings: 100 ppm spray plus root drench (approximately 40 ppm a.i/dry soil); inoculated 24 hours before treatment
[13] = test system: Apples; experiment: Intermediate Retardant Test, apples, foliar spray compared with root drench; format: in vivo, Apples (Red Delicious); settings: 672 h, approximately 28 days, Table IX, read-out: Percentage Reduction in Height of Apples (Compared to formulation blank)
Outline: as §4

[14] = test system: Cercospora arachidicola; experiment: Foliar fungal disease control, Cercospora arachidicola (peanut); format: in vivo; settings: 100 ppm spray plus root drench (approximately 40 ppm a.i/dry soil), one or two days before inoculation
[15] = test system: Maize; experiment: Whole plant screen for plant growth regulator activity, maize (MZ); format: in vivo, Maize (Earliking); settings: 4000 ppm (4 kg/ha), visual score after 2-6 weeks
Experimental: Compounds 1 to 3 in Table 1 were tested for plant growth regulator activity against five species for various growth effects relevant to plant growth regulation.
The plant species used in this screen are presented in Table II with the leaf stage at which they were sprayed. Each chemical was applied at 4000 ppm (4 kg/ha in a 1000 l/ha field volume) using a tracksprayer and a SS8004E (Teejet) nozzle.
After spray the plants were grown in a glasshouse with 25° C. day/22° C. night temperatures and supplementary lighting was supplied when necessary (from mercury vapour lamps), to provide a 16 hour photoperiod. The exception to this were the temperate cereals, wheat and barley which were grown in 16° C. day/13° C. night temperatures.
After 2-6 weeks in the glasshouse, depending on the time of year, the plants were visually assessed for morphological characteristics. Formulation blanks were used as controls to assess the plants. […]

[16] = test system: Puccinia recondita; experiment: Foliar fungal disease control, Puccinia recondita (wheat); format: in vivo; settings: 100 ppm spray plus root drench (approximately 40 ppm a.i/dry soil), one or two days before inoculation
[17] = test system: Spring Barley; experiment: Intermediate Retardant Test, spring barley; format: in vivo, Spring Barley (Atem/kym); settings: Hordeum vulgare, 672 h, overall spray, approximately 28 days, Table VII, read-out: Percentage Reduction in Height of Spring Barley (Compared to formulation blank)
Outline: as §4

[18] = test system: Rice; experiment: Whole plant screen for plant growth regulator activity, rice (RC); format: in vivo, Rice (Ishikari); settings: 4000 ppm (4 kg/ha), visual score after 2-6 weeks
Outline: as §3

[19] = test system: Plasmopara viticola; experiment: Foliar fungal disease control, Plasmopara viticola (vine); format: in vivo; settings: 100 ppm spray plus root drench (approximately 40 ppm a.i/dry soil), one or two days before inoculation

| SMILES | […] IN HEIGHT, BR [1] | […] IN HEIGHT, AP [2] | […] IN HEIGHT, RC [3] | G = Greening effect [4] | R = Retardation [4] | […] IN HEIGHT, SR (Foliar) [5] | […] IN HEIGHT, SR (Root) [5] | G = Greening effect [6] | R = Retardation [6] | G = Greening effect [7] | I = Interligular or internodal length reduction [7] | R = Retardation [7] | T = Tillering or side shooting [7] | I = Interligular or internodal length reduction [4] | I = Interligular or internodal length reduction [6] | disease control, P[…] (RICE) [8] | disease control, PH[…] (TOMATO) [11] | disease control, ERYSIPHE GRAMINIS (BARLEY) [12] | disease control, CERCOSPORA ARACHIDICOLA (PEANUT) [14] | T = Tillering or side shooting [4] | also measured |
| --- | --- | --- | --- | --- | --- | --- | --- | --- | --- | --- | --- | --- | --- | --- | --- | --- | --- | --- | --- | --- | --- |
| CCCCCC#CC(O)(c1cncnc1)C(C)C (stereo not shown) [Compound 23] | 29% | 50% | 54% | 2 (31-60%) | 2 (31-60%) | 2% | 45% | 2 (31-60%) | 2 (31-60%) | 2 (31-60%) | 3 (61-100%) | 3 (61-100%) | 1 (10-30%) |  |  |  |  |  |  |  |  |
| CCCCCC#CC(O)(c1cncnc1)C(C)(C)C (stereo not shown) [Compound 32] | 17% | 30% | 46% | 1 (10-30%) | 2 (31-60%) | 13% | 37% | 2 (31-60%) | 2 (31-60%) | 2 (31-60%) | 3 (61-100%) | 3 (61-100%) | 1 (10-30%) | 3 (61-100%) | 1 (10-30%) |  |  |  |  |  |  |
| CC(C)CCCC(O)(c1cncnc1)C(C)C (stereo not shown) [Compound 7, 2-Methyl-1-(4-methylpentyl)-1-(pyrimidin-5-yl)propan-1-ol] |  |  |  | 2 (31-60%) | 3 (61-100%) |  |  | 2 (31-60%) | 3 (61-100%) | 2 (31-60%) | 2 (31-60%) | 2 (31-60%) | 1 (10-30%) | 3 (61-100%) | 3 (61-100%) | 0 (60-100% of disease on untreated plants) | 0 (60-100% of disease on untreated plants) | 4 | 0 (60-100% of disease on untreated plants) | 3 (61-100%) | Percent reduction in rice height vs formulation blank at 500 ppm ([9]; 500 ppm): 31%; Percent reduction in rice height vs formulation blank at 2000 ppm ([9]; 2000 ppm): 45%; G = Greening effect [10]: 1 (10-30%); I = Interligular or internodal length reduction [10]: 2 (31-60%); R = Retardation [10]: 3 (61-100%); percent reduction in plant height at 2000 ppm ([13]; 2000 ppm (Foliar)): 12%; percent reduction in plant height at 2000 µg/mL ([13]; soil, 2000 pmm (Root), root drench): 45%; G = Greening effect [15]: 1 (10-30%); I = Interligular or internodal length reduction [15]: 2 (31-60%); R = Retardation [15]: 2 (31-60%); disease control, PUCCINIA RECONDITA (WHEAT) [16]: 0 (60-100% of disease on untreated plants); percent reduction in plant height at 500 ppm ([17]; 500 ppm): 23%; percent reduction in plant height at 2000 ppm ([17]; 2000 ppm): 47%; G = Greening effect [18]: 1 (10-30%); I = Interligular or internodal length reduction [18]: 2 (31-60%); R = Retardation [18]: 2 (31-60%) |
| CC(C)(C)/C=C/C(O)(c1cncnc1)C1(C)CC1 (stereo not shown) [Compound 55] |  |  |  | 1 (10-30%) | 2 (31-60%) |  |  | 2 (31-60%) | 2 (31-60%) |  |  |  | 3 (61-100%) | 2 (31-60%) | 2 (31-60%) | 0 (60-100% of disease on untreated plants) | 0 (60-100% of disease on untreated plants) | 4 | 4 | 1 (10-30%) | disease control, PLASMOPARA VITICOLA (VINE) [19]: 0 (60-100% of disease on untreated plants); disease control, PUCCINIA RECONDITA (WHEAT) [16]: 4 |
